Data on 9 compounds can be found in US12552771B2, “Carboxylic acid containing azetidinyl compounds for the treatment of neurodegenerative diseases” (Celgene Corporation, priority 2021, dated 2026).

Counter-ions that a name gives are not always drawn.

T1 sequence (Q9H228 whole entry): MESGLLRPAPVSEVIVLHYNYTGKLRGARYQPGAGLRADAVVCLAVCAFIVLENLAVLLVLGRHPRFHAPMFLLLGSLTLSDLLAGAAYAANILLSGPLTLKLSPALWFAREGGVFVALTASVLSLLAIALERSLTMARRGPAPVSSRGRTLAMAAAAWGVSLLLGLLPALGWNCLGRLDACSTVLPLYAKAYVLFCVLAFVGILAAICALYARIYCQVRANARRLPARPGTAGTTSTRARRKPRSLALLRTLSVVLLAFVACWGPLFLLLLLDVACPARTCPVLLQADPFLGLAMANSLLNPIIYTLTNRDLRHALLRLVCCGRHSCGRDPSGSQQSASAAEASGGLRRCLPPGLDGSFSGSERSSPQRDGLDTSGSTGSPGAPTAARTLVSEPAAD

The experiment addresses T1, S1P5 receptors (Homo sapiens, UniProt Q9H228).
T1 construct: expressed in transfected cells; host or cells: CHO cells (membranes)
The experiment in a line: [35S]-GTPγS binding assay with CHO-S1P5 receptor membranes. The class given is biochemical. Particulars: membranes of CHO cells expressing recombinant S1P5 receptors; measure of S1P5 agonism. The procedure, abridged: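 Membranes from CHO cells expressing recombinant S1P5 were preincubated for 30 min at RT with compound, GDP and WGA SPA beads. The buffer was 20 mM HEPES, 10 mM MgCl2, 100 mM NaCl, 1 mM EDTA, 0.1% fatty-acid-free BSA and 30 μg/mL saponin, pH 7.4. [35S]GTPγS (200 pM final) was added for 40 min, and bound radioactivity read as agonism; S1P was the control.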
(GTPγS resists hydrolysis and so accumulates on activated G proteins.)
As for `Cc1cc(C2CN(c3c(Cl)cccc3Cl)C2)ncc1CN1CCC(C(=O)O)CC1` [Compound 78, 1-((6-(1-(2,6-dichlorophenyl)azetidin-3-yl)-4-methylpyridin-3-yl)methyl)-piperidine-4-carboxylic acid], the concentration giving a half-maximal response (EC50) (as a rule, the midpoint of the concentration-response curve) fell in the range of 100 to 1000 nM.

For `Cc1cc(CN2CCC(C(=O)O)CC2)cnc1C1CN(c2c(Cl)cccc2Cl)C1` [Compound 79, 1-((6-(1-(2,6-dichlorophenyl)azetidin-3-yl)-5-methylpyridin-3-yl)methyl)piperidine-4-carboxylic acid], the EC50 is 100 to 1000 nM.

For the compound `Cc1cc(C2CN(c3c(Cl)cccc3Cl)C2)c(C)nc1CN1CCC(C(=O)O)CC1` [Compound 82, 1-((5-(1-(2,6-dichlorophenyl)azetidin-3-yl)-3,6-dimethylpyridin-2-yl)-methyl)piperidine-4-carboxylic acid], the EC50 fell in the range of 100 to 1000 nM.

Regarding `Cc1cc(CN2CCC(C(=O)O)CC2)c(C)nc1C1CN(c2c(Cl)cccc2Cl)C1` [Compound 83, 1-((6-(1-(2,6-dichlorophenyl)azetidin-3-yl)-2,5-dimethyl-pyridin-3-yl)methyl)piperidine-4-carboxylic acid], the EC50 fell in the range of 10 to 100 nM.

As to `Cc1cc(CN2CCC(C(=O)O)CC2)nc(C)c1C1CN(c2c(Cl)cccc2Cl)C1` [Compound 84, 1-((5-(1-(2,6-dichlorophenyl)azetidin-3-yl)-4,6-dimethyl-pyridin-2-yl)methyl)piperidine-4-carboxylic acid], the EC50 is 10 to 100 nM.

Take `Cc1cc(C(C)(C)N2CCC(C(=O)O)CC2)cc(C)c1C1CN(c2c(Cl)cccc2Cl)C1` [Compound 86, 1-(2-(4-(1-(2,6-dichlorophenyl)azetidin-3-yl)-3,5-dimethylphenyl)propan-2-yl)piperidine-4-carboxylic acid]: the EC50 is at most 10 nM.

For `CC(C)(c1ccc(C2CN(c3c(Cl)cccc3Cl)C2)nc1)N1CCC(C(=O)O)CC1` [Compound 87, 1-(2-(6-(1-(2,6-dichlorophenyl)azetidin-3-yl)pyridin-3-yl)propan-2-yl)-piperidine-4-carboxylic acid], the EC50 lay in the range of 10 to 100 nM.

For the compound `CC1(C(=O)O)CCN(Cc2ccc(C3CN(c4c(Cl)cccc4Cl)C3)cc2)CC1` [Compound 89, 1-(4-(1-(2,6-dichlorophenyl)azetidin-3-yl)benzyl)-4-methylpiperidine-4-carboxylic acid, formic acid salt], the EC50 was in the range of 10 to 100 nM.

On to `Cc1cc(C2CN(c3c(Cl)cccc3Cl)C2)cc(C)c1CN1CCC(C)(C(=O)O)CC1` [Compound 90, 1-(4-(1-(2,6-dichlorophenyl)azetidin-3-yl)-2,6-dimethylbenzyl)-4-methyl-piperidine-4-carboxylic acid, formic acid salt], for which the EC50 was at most 10 nM.
